Where a SMILES comes first, the peptide text is derived from it. Bridges are numbered along the chain shown (N, C = ends). [ ]: non-standard residue; d: D form. 2Nal = N[C@@H](Cc1ccc2ccccc2c1)C(=O)O; R8 = C=CCCCCCC[C@@](C)(N)C(=O)O; Cba = N[C@@H](CC1CCC1)C(=O)O; S5 = C=CCCC[C@](C)(N)C(=O)O Bounds are passed on as bounds.

The test system of one experiment is SJSA-1 cells. Nature of the experiment: Cell lysis by peptidomimetic macrocycles (LDH release). Format: cell-based. Conditions: 1 h at 37C. Background: LDH leaks from cells whose membrane has failed.
For a further experiment, the target named is T1, MDMX (Homo sapiens, UniProt O15151).
T1 sequence (O15151 1-125): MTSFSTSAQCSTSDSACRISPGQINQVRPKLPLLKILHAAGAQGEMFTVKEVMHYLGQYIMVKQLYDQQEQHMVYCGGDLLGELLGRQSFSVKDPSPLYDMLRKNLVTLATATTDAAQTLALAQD
Description: Competitive fluorescence polarization assay for MDMX. Format: binding. To be noted: competitive FP assay; for IC50: read-out: IC50 (MDMX); for Ki: read-out: Ki (MDMX). For orientation: Polarisation of emitted light reports the rotation of a fluorescent probe.

For a further experiment, the system named is Caspase 3. Description: Caspase 3 detection assay in SJSA1 cells. In kind it is cell-based. To be noted: 48 h, Caspase 3 activation over DMSO-treated cells; for caspase 0.3 uM: 0.3 uM peptide; for caspase 3 uM: 3 uM peptide; for caspase 10 uM: 10 uM peptide; for caspase 30 uM: 30 uM peptide; for caspase 1 uM: 1 uM peptide.

Description for MDMX: Dilute MDMX (In-house, 40 kD) into FP buffer (High salt buffer-200 mM Nacl, 5 mM CHAPS, pH 7.5.) to make 300 nM (2×) working stock solution. • 2. […] Dilute 1 mM (in 100% DMSO) of FAM labeled linear peptide with DMSO to 100 μM (dilution 1:10). Then, dilute from 100 μM to 10 μM with water (dilution 1:10) and then dilute with FP buffer from 10 μM to 40 nM (dilution 1:250). This is the working solution which will be a 10 nM concentration in well (dilution 1:4). Keep the diluted FAM labeled peptide in the dark until use. • 4. […] Dilute 10 mM (in 100% DMSO) with DMSO to 5 mM (dilution 1:2). Then, dilute from 5 mM to 500 μM with H2O (dilution 1:10) and then dilute with FP buffer from 500 μM to 20 μM (dilution 1:25). […] Transfer 10 μl of serial diluted unlabeled peptides to each well which is filled with 20 μl of 300 nM of protein. • 7. Add 10 μl of 10 nM (4×) of FAM labeled peptide into each well and incubate for 3 hr to read.

What is called IC50 is the concentration needed to halve the response being measured. As a reminder, the Ki is a measure of affinity in units of concentration, obtained from inhibition or displacement. `CC(=O)N[C@@H](CC(C)C)C(=O)N[C@H](C(=O)N[C@@H](Cc1ccccc1)C(=O)N[C@]1(C)CCCCCCC=CCCC[C@@](C)(C(=O)N[C@@H](CO)C(=O)N[C@@H](C)C(=O)N[C@@H](C)C(N)=O)NC(=O)[C@H](CC2CCCCC2)NC(=O)[C@H](CCC(N)=O)NC(=O)[C@H](C)NC(=O)[C@H](Cc2c[nH]c3ccccc23)NC(=O)[C@H](Cc2ccc(O)cc2)NC(=O)[C@H](CCC(=O)O)NC1=O)[C@@H](C)O` (single isomer, unassigned) [compound 148]: in the experiment with SJSA-1 cells, the “6.25 uM % Lysed cells (1 h LDH)” value was 0%, the “25 uM % Lysed cells (1 h LDH)” value was −1% and the “50 uM % Lysed cells (1 h LDH)” value worked out at 0%. Moreover, at MDMX, the IC50 was 100 to 1000 nM and the inhibition constant Ki was 10 to 100 nM. In the experiment on Caspase 3, the “caspase 0.3 uM” value came out at 1, the “caspase 3 uM” value turned out to be 11, the “caspase 10 uM” value is reported as 23 and the “caspase 30 uM” value amounted to 31.
For `CC(=O)N[C@@H](CC(C)C)C(=O)N[C@H](C(=O)N[C@@H](Cc1ccccc1)C(=O)N[C@]1(C)CCCCCCC=CCCC[C@@](C)(C(=O)N[C@@H](C)C(=O)N[C@@H](C)C(=O)N[C@@H](Cc2ccccc2)C(=O)N[C@H](C)C(N)=O)NC(=O)[C@H](CC(C)C)NC(=O)[C@H](CCC(N)=O)NC(=O)[C@H](C)NC(=O)[C@H](Cc2c[nH]c3ccccc23)NC(=O)[C@H](Cc2ccc(O)cc2)NC(=O)[C@H](CCC(=O)O)NC1=O)[C@@H](C)O` (single isomer, unassigned) [compound 219], in the experiment on SJSA-1 cells, the “6.25 uM % Lysed cells (1 h LDH)” value stood at 0%, the “25 uM % Lysed cells (1 h LDH)” value was −1% and the “50 uM % Lysed cells (1 h LDH)” value came to 2%. For the same molecule, in the experiment with Caspase 3, the “caspase 0.3 uM” value amounted to 1, the “caspase 3 uM” value was determined as 5, the “caspase 10 uM” value came out at 17 and the “caspase 30 uM” value is 34.
As for `CC[C@H](C)[C@H](NC(=O)[C@H](C)NC(=O)[C@H](C)NC(=O)[C@]1(C)CCCC=CCCCCCC[C@@](C)(NC(=O)[C@H](Cc2ccccc2)NC(=O)[C@@H](NC(=O)[C@H](CC(C)C)NC(C)=O)[C@@H](C)O)C(=O)N[C@@H](CCC(=O)O)C(=O)N[C@@H](Cc2c[nH]cn2)C(=O)N[C@@H](Cc2c[nH]c3ccccc23)C(=O)N[C@@H](C)C(=O)N[C@@H](CCC(N)=O)C(=O)N[C@@H](CC(C)C)C(=O)N1)C(=O)N[C@H](C)C(N)=O` (single isomer, unassigned) [compound 223], in the experiment with SJSA-1 cells, the “6.25 uM % Lysed cells (1 h LDH)” value is on record as −2%, the “25 uM % Lysed cells (1 h LDH)” value was −4% and the “50 uM % Lysed cells (1 h LDH)” value is given as −1%. Besides, in the experiment with Caspase 3, the “caspase 0.3 uM” value was found to be 1, the “caspase 3 uM” value was 1, the “caspase 10 uM” value was found to be 5 and the “caspase 30 uM” value stood at 18.
As to `CC(=O)N[C@@H](CC(C)C)C(=O)N[C@H](C(=O)N[C@@H](Cc1ccccc1)C(=O)N[C@]1(C)CCCCCCC=CCCC[C@@](C)(C(=O)N[C@@H](C)C(=O)N[C@@H](C)C(=O)N[C@@H](C)C(=O)N[C@@H](C)C(=O)N[C@@H](C)C(=O)N[C@H](C)C(N)=O)NC(=O)[C@H](CC(C)C)NC(=O)[C@H](CCC(N)=O)NC(=O)[C@H](C)NC(=O)[C@H](Cc2c[nH]c3cc(Cl)ccc23)NC(=O)[C@H](Cc2ccc(O)cc2)NC(=O)[C@H](C)NC1=O)[C@@H](C)O` (single isomer, unassigned) [compound 338], in the experiment with SJSA-1 cells, the “6.25 uM % Lysed cells (1 h LDH)” value turned out to be 0%, the “25 uM % Lysed cells (1 h LDH)” value amounted to 0% and the “50 uM % Lysed cells (1 h LDH)” value was determined as 1%. Moreover, in the experiment on Caspase 3, the “caspase 0.3 uM” value was 1, the “caspase 1 uM” value worked out at 5, the “caspase 3 uM” value was determined as 23 and the “caspase 10 uM” value is 20. Moreover, in the experiment on Caspase 3, the “caspase 30 uM” value is reported as 29.
With `CC(=O)N[C@@H](CC(C)C)C(=O)N[C@H](C(=O)N[C@@H](Cc1ccccc1)C(=O)N[C@]1(C)CCCCCCC=CCCC[C@@](C)(C(=O)N[C@@H](CO)C(=O)N[C@@H](C)C(=O)N[C@@H](C)C(=O)N[C@H](C)C(N)=O)NC(=O)[C@H](CC2CCC2)NC(=O)[C@H](CCC(N)=O)NC(=O)[C@H](C)NC(=O)[C@H](Cc2c[nH]c3ccccc23)NC(=O)[C@H](Cc2ccc(O)cc2)NC(=O)[C@H](CCC(=O)O)NC1=O)[C@@H](C)O` (single isomer, unassigned) [compound 353], in the experiment with SJSA-1 cells, the “6.25 uM % Lysed cells (1 h LDH)” value is listed as 0%, the “25 uM % Lysed cells (1 h LDH)” value was 0% and the “50 uM % Lysed cells (1 h LDH)” value worked out at 0%. On MDMX, the IC50 fell in the range of 10 to 100 nM and the Ki was < 10 nM. In the experiment with Caspase 3, the “caspase 0.3 uM” value was 1, the “caspase 1 uM” value stood at 2, the “caspase 3 uM” value amounted to 5 and the “caspase 10 uM” value amounted to 7. In the experiment with Caspase 3, the “caspase 30 uM” value came to 30.
In the case of `CSCC[C@H](NC(=O)[C@H](C)NC(=O)[C@H](C)NC(=O)[C@]1(C)CCCC=CCCCCCC[C@@](C)(NC(=O)[C@H](Cc2ccccc2)NC(=O)[C@@H](NC(=O)[C@H](CC(C)C)NC(C)=O)[C@@H](C)O)C(=O)N[C@@H](C)C(=O)N[C@@H](Cc2ccc(O)cc2)C(=O)N[C@@H](Cc2c[nH]c3ccccc23)C(=O)N[C@@H](C)C(=O)N[C@@H](C)C(=O)N[C@@H](CC(C)C)C(=O)N1)C(=O)N[C@H](C)C(N)=O` [compound 72] (Ac-LTF[R8]AYWAAL[S5]AAM[dA]-NH2; staple 4-11), in the experiment with SJSA-1 cells, the “6.25 uM % Lysed cells (1 h LDH)” value is recorded as 2%, the “25 uM % Lysed cells (1 h LDH)” value came to 0% and the “50 uM % Lysed cells (1 h LDH)” value is 3%. In the experiment with Caspase 3, the “caspase 0.3 uM” value was found to be 1, the “caspase 3 uM” value is reported as 1, the “caspase 10 uM” value stood at 4 and the “caspase 30 uM” value is reported as 10.
Regarding `CC(=O)N[C@@H](CC(C)C)C(=O)N[C@H](C(=O)N[C@@H](Cc1ccc(F)c(F)c1)C(=O)N[C@]1(C)CCCCCC/C=C/CCC[C@@](C)(C(=O)N[C@@H](CO)C(=O)N[C@@H](C)C(=O)N[C@@H](C)C(N)=O)NC(=O)[C@H](CCC(C)C)NC(=O)[C@H](CCC(N)=O)NC(=O)[C@H](C)NC(=O)[C@H](Cc2c[nH]c3ccccc23)NC(=O)[C@H](Cc2ccc(O)cc2)NC(=O)[C@H](CCC(=O)O)NC1=O)[C@@H](C)O` [compound 160], in the experiment on SJSA-1 cells, the “6.25 uM % Lysed cells (1 h LDH)” value is −1%, the “25 uM % Lysed cells (1 h LDH)” value was −1% and the “50 uM % Lysed cells (1 h LDH)” value is on record as 1%. In the experiment on Caspase 3, the “caspase 0.3 uM” value was 2, the “caspase 3 uM” value came out at 10, the “caspase 10 uM” value amounted to 16 and the “caspase 30 uM” value worked out at 31.
For `CC(=O)N[C@@H](CC(C)C)C(=O)N[C@H](C(=O)N[C@@H](Cc1ccccc1)C(=O)N[C@]1(C)CCCCCCC=CCCC[C@@](C)(C(=O)N[C@@H](C)C(=O)N[C@@H](Cc2c[nH]cn2)C(=O)N[C@@H](Cc2ccccc2)C(=O)N[C@@H](C)C(N)=O)NC(=O)[C@H](CC(C)C)NC(=O)[C@H](CCC(N)=O)NC(=O)[C@H](C)NC(=O)[C@H](Cc2c[nH]c3ccccc23)NC(=O)[C@H](Cc2c[nH]cn2)NC(=O)[C@H](C)NC1=O)[C@@H](C)O` [compound 183] (Ac-LTF[R8]AHWAQL[S5]AHFA-NH2; staple 4-11), in the experiment with SJSA-1 cells, the “6.25 uM % Lysed cells (1 h LDH)” value is given as 2%, the “25 uM % Lysed cells (1 h LDH)” value was 0% and the “50 uM % Lysed cells (1 h LDH)” value was 3%. In the experiment on Caspase 3, the “caspase 0.3 uM” value turned out to be 1, the “caspase 3 uM” value was 1, the “caspase 10 uM” value is 4 and the “caspase 30 uM” value worked out at 8.
In the case of `CC(=O)N[C@@H](CC(C)C)C(=O)N[C@H](C(=O)N[C@@H](Cc1ccccc1)C(=O)N[C@]1(C)CCCCCCC=CCCC[C@@](C)(C(=O)N[C@@H](CO)C(=O)N[C@@H](C)C(=O)N[C@@H](C)C(N)=O)NC(=O)[C@H](CC2CCC2)NC(=O)[C@H](CCC(N)=O)NC(=O)[C@H](C)NC(=O)[C@H](Cc2ccc3ccccc3c2)NC(=O)[C@H](Cc2ccc(O)cc2)NC(=O)[C@H](CCC(=O)O)NC1=O)[C@@H](C)O` [compound 254] (Ac-LTF[R8]EY[2Nal]AQ[Cba][S5]SAA-NH2; staple 4-11), in the experiment on SJSA-1 cells, the “6.25 uM % Lysed cells (1 h LDH)” value turned out to be 11%, the “25 uM % Lysed cells (1 h LDH)” value came to 60% and the “50 uM % Lysed cells (1 h LDH)” value amounted to 75%. Moreover, on MDMX, the IC50 was in the range of 100 to 1000 nM and the Ki was in the range of 10 to 100 nM. In addition, in the experiment with Caspase 3, the “caspase 0.3 uM” value stood at 1, the “caspase 1 uM” value came out at 3, the “caspase 3 uM” value is recorded as 7 and the “caspase 10 uM” value worked out at 14. Moreover, the “caspase 30 uM” value with Caspase 3 came out at 22.
`CC(=O)N[C@@H](CC(C)C)C(=O)N[C@H](C(=O)N[C@@H](Cc1ccccc1)C(=O)N[C@]1(C)CCCCCC/C=C/CCC[C@@](C)(C(=O)N[C@@H](C)C(=O)N[C@@H](C)C(=O)N[C@@H](C)C(=O)N[C@@H](C)C(=O)N[C@@H](C)C(=O)N[C@H](C)C(N)=O)NC(=O)[C@H](CC(C)C)NC(=O)[C@H](CCC(N)=O)NC(=O)[C@H](C)NC(=O)[C@H](Cc2c[nH]c3ccccc23)NC(=O)[C@H](Cc2ccc(O)cc2)NC(=O)[C@H](CCC(=O)O)NC1=O)[C@@H](C)O` [compound 331] (Ac-LTF[R8]EYWAQL[S5]AAAAA[dA]-NH2; staple (E) 4-11): in the experiment on SJSA-1 cells, the “6.25 uM % Lysed cells (1 h LDH)” value amounted to 0%, the “25 uM % Lysed cells (1 h LDH)” value worked out at 0% and the “50 uM % Lysed cells (1 h LDH)” value turned out to be 0%. Besides, in the experiment with Caspase 3, the “caspase 0.3 uM” value was 4.5, the “caspase 1 uM” value was determined as 8, the “caspase 3 uM” value amounted to 11 and the “caspase 10 uM” value turned out to be 14.5. The “caspase 30 uM” value with Caspase 3 came out at 30.5.

The record behind these values is patent publication US8927500B2, “Peptidomimetic macrocycles” (Aileron Therapeutics, Inc., priority 2012, dated 2015).
